Measurements from patent US10576147B2, “Muramyl peptide derivative compound, synthesis and uses thereof” (BHARAT BIOTECH INTERNATIONAL LIMITED, priority 2015, dated 2020).

Columns and labels:
BALB/c mice [1] = assay: Total IgG1 and IgG2a after immunization (sandwich ELISA); format: in vivo; details: OVA 100 μg alone
Procedure: (§1) Male BALB/c mice were immunized subcutaneously with OVA 100 μg alone or with OVA 100 μg dissolved in saline containing analogues (7.5, 15 or 30 μg) on Days 1 and 15. Sera were collected 2 weeks after the last immunization. Total IgG1 and IgG2a antibodies in the sera were measured by Sandwich ELISA. The values are presented as log 2 titre.

BALB/c mice [2] = assay: OVA-specific IgG after immunization (indirect ELISA); format: in vivo; details: OVA 100 μg alone, s.c. Days 1 and 15, sera 2 weeks after last immunization
Procedure: as §1, with “OVA-specific IgG” for “Total IgG1 and IgG2a”, “an Indirect” for “Sandwich”

OVA: Ovalbumin (OVA) antigen, given alone
Log(2) Total IgG1 Antibody Titre (BALB/c mice [1]): 14.39 | Log(2) Total IgG2a Antibody Titre (BALB/c mice [1]): 11.89 | Log(2) IgG Antibody Titre (BALB/c mice [2]): 12.64
